Like-named read-outs stand apart in the source and are kept apart here.
What was measured:
Test in all cases: biochemical
Assay type in all cases: binding
468 kinases [1] = target: 468 kinases (Homo sapiens, UniProt O00141); conditions: SGK; read-out: % Inhibition @ 100 nM
468 kinases [2] = target: 468 kinases (Homo sapiens, UniProt O60674); conditions: JAK2( JH1domain-catalytic); read-out: % Inhibition @ 100 nM
468 kinases [3] = target: 468 kinases (Homo sapiens, UniProt O75747); conditions: PIK3C2G; read-out: % Inhibition @ 100 nM
468 kinases [4] = target: 468 kinases (Homo sapiens, UniProt O96013); conditions: PAK4; read-out: % Inhibition @ 100 nM
468 kinases [5] = target: 468 kinases (Homo sapiens, UniProt P00519, F317L); conditions: read-out: % Inhibition @ 100 nM
468 kinases [6] = target: 468 kinases (Homo sapiens, UniProt P10721, D816H); conditions: KIT(D816H); read-out: % Inhibition @ 100 nM
468 kinases [7] = target: 468 kinases (Homo sapiens, UniProt P16234); conditions: PDGFRA; read-out: % Inhibition @ 100 nM
468 kinases [8] = target: 468 kinases (Homo sapiens, UniProt P21127); conditions: CDC2L1; read-out: % Inhibition @ 100 nM
468 kinases [9] = target: 468 kinases (Homo sapiens, UniProt P36507); conditions: MEK2; read-out: % Inhibition @ 100 nM
468 kinases [10] = target: 468 kinases (Homo sapiens, UniProt P36888, D835H); conditions: FLT3(D835H); read-out: % Inhibition @ 100 nM
468 kinases [11] = target: 468 kinases (Homo sapiens, UniProt P36888, R834Q); conditions: FLT3(R834Q); read-out: % Inhibition @ 100 nM
468 kinases [12] = target: 468 kinases (Homo sapiens, UniProt P36894); conditions: BMPR1A; read-out: % Inhibition @ 100 nM
468 kinases [13] = target: 468 kinases (Homo sapiens, UniProt P42336, H1047L); conditions: PIK3CA(H1047L); read-out: % Inhibition @ 100 nM
468 kinases [14] = target: 468 kinases (Homo sapiens, UniProt P42679); conditions: CTK; read-out: % Inhibition @ 100 nM
468 kinases [15] = target: 468 kinases (Homo sapiens, UniProt P43405); conditions: SYK; read-out: % Inhibition @ 100 nM
468 kinases [16] = target: 468 kinases (Homo sapiens, UniProt P49759); conditions: CLK1; read-out: % Inhibition @ 100 nM
468 kinases [17] = target: 468 kinases (Homo sapiens, UniProt P51451); conditions: BLK; read-out: % Inhibition @ 100 nM
468 kinases [18] = target: 468 kinases (Homo sapiens, UniProt P53667); conditions: LIMK1; read-out: % Inhibition @ 100 nM
468 kinases [19] = target: 468 kinases (Homo sapiens, UniProt P57059); conditions: SIK; read-out: % Inhibition @ 100 nM
468 kinases [20] = target: 468 kinases (Homo sapiens, UniProt Q13464); conditions: ROCK1; read-out: % Inhibition @ 100 nM
468 kinases [21] = target: 468 kinases (Homo sapiens, UniProt Q14289); conditions: PYK2; read-out: % Inhibition @ 100 nM
468 kinases [22] = target: 468 kinases (Homo sapiens, UniProt Q15375); conditions: EPHA7; read-out: % Inhibition @ 100 nM
468 kinases [23] = target: 468 kinases (Homo sapiens, UniProt Q15746); conditions: MYLK; read-out: % Inhibition @ 100 nM
468 kinases [24] = target: 468 kinases (Homo sapiens, UniProt Q59H18); conditions: TNNI3K; read-out: % Inhibition @ 100 nM
468 kinases [25] = target: 468 kinases (Homo sapiens, UniProt Q6PHR2); conditions: ULK3; read-out: % Inhibition @ 100 nM
468 kinases [26] = target: 468 kinases (Homo sapiens, UniProt Q8IVW4); conditions: CDKL3; read-out: % Inhibition @ 100 nM
468 kinases [27] = target: 468 kinases (Homo sapiens, UniProt Q8NE63); conditions: HIPK4; read-out: % Inhibition @ 100 nM
468 kinases [28] = target: 468 kinases (Homo sapiens, UniProt Q8NI60); conditions: ADCK3; read-out: % Inhibition @ 100 nM
468 kinases [29] = target: 468 kinases (Homo sapiens, UniProt Q8TBX8); conditions: PIP5K2C; read-out: % Inhibition @ 100 nM
468 kinases [30] = target: 468 kinases (Homo sapiens, UniProt Q8TD08); conditions: ERK8; read-out: % Inhibition @ 100 nM
468 kinases [31] = target: 468 kinases (Homo sapiens, UniProt Q9UHD2); conditions: TBK1; read-out: % Inhibition @ 100 nM
468 kinases [32] = target: 468 kinases (Homo sapiens, UniProt Q9UL54); conditions: TAOK2; read-out: % Inhibition @ 100 nM
468 kinases [33] = target: 468 kinases (Homo sapiens, UniProt Q9Y3S1); conditions: WNK2; read-out: % Inhibition @ 100 nM

CCN(CC)CCNC(=O)c1c(C)[nH]c(/C=C2\C(=O)Nc3ccc(CCO)cc32)c1C [Compound No. 10, (Z)—N-(2-(Diethylamino)ethyl)-5-((5-(2-hydroxyethyl)-2-oxoindolin-3-ylidene)methyl)-2,4-dimethyl-1H-pyrrole-3-carboxamide]
inhibition at 0.1 µM (468 kinases [1]): 2% | inhibition at 0.1 µM (468 kinases [2]): 72% | inhibition at 0.1 µM (468 kinases [3]): 19% | inhibition at 0.1 µM (468 kinases [4]): 0% | inhibition at 0.1 µM (468 kinases [5]; ABL1 (F317L)-nonphosphorylated): 6% | inhibition at 0.1 µM (468 kinases [5]; ABL1 (F317L)-phosphorylated): 22% | inhibition at 0.1 µM (468 kinases [6]): 6% | inhibition at 0.1 µM (468 kinases [7]): 84% | inhibition at 0.1 µM (468 kinases [8]): 0% | inhibition at 0.1 µM (468 kinases [9]): 90.4% | inhibition at 0.1 µM (468 kinases [10]): 91.7% | inhibition at 0.1 µM (468 kinases [11]): 56% | inhibition at 0.1 µM (468 kinases [12]): 0% | inhibition at 0.1 µM (468 kinases [13]): 16% | inhibition at 0.1 µM (468 kinases [14]): 22% | inhibition at 0.1 µM (468 kinases [15]): 16% | inhibition at 0.1 µM (468 kinases [16]): 90.2% | inhibition at 0.1 µM (468 kinases [17]): 40% | inhibition at 0.1 µM (468 kinases [18]): 0% | inhibition at 0.1 µM (468 kinases [19]): 0% | inhibition at 0.1 µM (468 kinases [20]): 4% | inhibition at 0.1 µM (468 kinases [21]): 31% | inhibition at 0.1 µM (468 kinases [22]): 0% | inhibition at 0.1 µM (468 kinases [23]): 49% | inhibition at 0.1 µM (468 kinases [24]): 0% | inhibition at 0.1 µM (468 kinases [25]): 87% | inhibition at 0.1 µM (468 kinases [26]): 22% | inhibition at 0.1 µM (468 kinases [27]): 28% | inhibition at 0.1 µM (468 kinases [28]): 8% | inhibition at 0.1 µM (468 kinases [29]): 0% | inhibition at 0.1 µM (468 kinases [30]): 15% | inhibition at 0.1 µM (468 kinases [31]): 57% | inhibition at 0.1 µM (468 kinases [32]): 18% | inhibition at 0.1 µM (468 kinases [33]): 0%

CCN(CC)CCNC(=O)c1c(C)[nH]c(/C=C2\C(=O)Nc3ccc(CCC(N)=O)cc32)c1C [Compound No. 16, (Z)-5-((5-(3-Amino-3-oxopropyl)-2-oxoindolin-3-ylidene)methyl)-N-(2-(diethylamino)ethyl)-2,4-dimethyl-1H-pyrrole-3-carboxamide]
inhibition at 0.1 µM (468 kinases [1]): 47% | inhibition at 0.1 µM (468 kinases [2]): 76% | inhibition at 0.1 µM (468 kinases [3]): 4% | inhibition at 0.1 µM (468 kinases [4]): 0% | inhibition at 0.1 µM (468 kinases [5]; ABL1 (F317L)-phosphorylated): 20% | inhibition at 0.1 µM (468 kinases [6]): 33% | inhibition at 0.1 µM (468 kinases [7]): 55% | inhibition at 0.1 µM (468 kinases [8]): 7% | inhibition at 0.1 µM (468 kinases [9]): 83% | inhibition at 0.1 µM (468 kinases [10]): 92.9% | inhibition at 0.1 µM (468 kinases [11]): 55% | inhibition at 0.1 µM (468 kinases [12]): 0% | inhibition at 0.1 µM (468 kinases [13]): 15% | inhibition at 0.1 µM (468 kinases [14]): 16% | inhibition at 0.1 µM (468 kinases [15]): 0% | inhibition at 0.1 µM (468 kinases [16]): 90.7% | inhibition at 0.1 µM (468 kinases [17]): 29% | inhibition at 0.1 µM (468 kinases [18]): 17% | inhibition at 0.1 µM (468 kinases [19]): 9% | inhibition at 0.1 µM (468 kinases [20]): 53% | inhibition at 0.1 µM (468 kinases [21]): 7% | inhibition at 0.1 µM (468 kinases [22]): 1% | inhibition at 0.1 µM (468 kinases [23]): 34% | inhibition at 0.1 µM (468 kinases [24]): 5% | inhibition at 0.1 µM (468 kinases [25]): 25% | inhibition at 0.1 µM (468 kinases [26]): 0% | inhibition at 0.1 µM (468 kinases [27]): 57% | inhibition at 0.1 µM (468 kinases [28]): 8% | inhibition at 0.1 µM (468 kinases [29]): 1% | inhibition at 0.1 µM (468 kinases [30]): 25% | inhibition at 0.1 µM (468 kinases [31]): 58% | inhibition at 0.1 µM (468 kinases [32]): 21% | inhibition at 0.1 µM (468 kinases [33]): 13%
